Experimental data taken from patent publication US20250223268A1, “4-Methylsulfonylbenzamide Compound, Preparation Method, Herbicidal Composition And Use” (Jiangsu Flag Chemical Industry Co., Ltd., priority 2022, published 2025).

test system: Leptochloa chinensis; test: Greenhouse herbicidal activity and crop safety comparison (Test Example 2); assay type: in vivo; conditions: Rate 150 g/ha
Description: (§1) Pre-emergence: Seeds of gramineous weeds (Echinochloa crusgalli, Echinochloa crusgalli var. zelayensis, Echinochloa phyllopogon, Eleusine indica, Digitaria sanguinalis, Leptochloa chinensis, Setaria viridis, Alopecurus japonicus Steud, Beckmannia syzigachne, Polypogon fugax, Alopecurus aequalis, Lolium multiflorum, Poa annua, Aegilops tataschii, Avena fatua, Alopecurus myosuroides, Bromus japonicus), broadleaf weeds (Eclipta prostrata, Amaranthus retroflexus, Rorippa indica, Myosoton aquaticum, Veronica didyma, Galium aparine, Solanum nigrum, Xanthium sibiricum, Conyza canadensis, Sesbania cannabina, Sagittaria trifolia), and Cyperus iria (Cyperus iria, Scirpus juncoides, Cyperus difformis, etc.) were sown in plastic pots (7 cm diameter) with nutrient soil and bottom holes. Crop seeds (including Oryza sativa subsp. indica, Oryza sativa subsp. japonica, Oryza sativa L. var. Glutinosa matsum, Triticum aestivum, Zea mays, Sorghum bicolor, Setaria italica, Glycine max, Gossypium hirsutum, Brassica napus, Arachis hypogaea) were sown in plastic pots (10 cm diameter) with nutrient soil and bottom holes. After sowing, the seeds were lightly covered with soil, and the soil was moistened via bottom water absorption. The pots were placed in a constant-temperature light-controlled growth chamber for 24 hours before soil spraying. Spraying was performed using a 3WP-2000 walking-type spray tower (produced by the Nanjing Agricultural Mechanization Institute, Ministry of Agriculture) with a spindle speed of 96 mm/r, spray height of 300 mm, effective spray width of 350 mm, spray area of 0.35 m^2, and nozzle flow rate of 390 mL/min.
(§2) After treatment, the test materials were air-dried naturally in the laboratory and then transferred to the growth chamber. Results were assessed 14-30 days later.
(§3) Post-emergence: Seeds of gramineous weeds (Echinochloa crusgalli, Echinochloa crusgalli var. zelayensis, Echinochloa phyllopogon, Eleusine indica, Digitaria sanguinalis, Leptochloa chinensis, Setaria viridis, Alopecurus japonicus Steud, Beckmannia syzigachne, Polypogon fugax, Alopecurus aequalis, Lolium multiflorum, Poa annua, Aegilops tataschii, Avena fatua, Alopecurus myosuroides, Bromus japonicus), broadleaf weeds (Eclipta prostrata, Amaranthus retroflexus, Rorippa indica, Myosoton aquaticum, Veronica didyma, Galium aparine, Solanum nigrum, Xanthium sibiricum, Conyza canadensis, Sesbania cannabina, Sagittaria trifolia), and Cyperus iria (Cyperus iria, Scirpus juncoides, Cyperus difformis, etc.) were sown in plastic pots (7 cm diameter) with nutrient soil and bottom holes. Crop seeds (including Oryza sativa subsp. indica, Oryza sativa subsp. japonica, Oryza sativa L. var. Glutinosa matsum, Triticum aestivum, Zea mays, Sorghum bicolor, Setaria italica, Glycine max, Gossypium hirsutum, Brassica napus, Arachis hypogaea) were sown in plastic pots (10 cm diameter) with nutrient soil and bottom holes. After sowing, the pots were placed in the growth chamber until the plants reached the 3-6 leaf stage for foliar spraying. Post-treatment, the materials were air-dried naturally and returned to the growth chamber. Results were assessed 14-21 days later.
(§4) • A: Fresh weight inhibition rate≥80% to 100%; • B: Fresh weight inhibition rate[…] to <80%; • C: Fresh weight inhibition rate≥40% to <60%; • D: Fresh weight inhibition rate≥20% to <40%; • E: Fresh weight inhibition rate<20%; • NT: Not tested.
(§5) Using the above method, the herbicidal activity and crop safety of the present compounds were compared with structurally similar known compounds (CK1, CK2, CK3, CK4: compounds 4-756, 4-759, 1-557, 1-563 from WO2012028579A1; CK5: compound 290-1 from WO2013087577A1; CK6: compound 1-129 from WO2011035874A1).

| Compound | Leptochloa chinensis, control efficacy grading (fresh weight inhibition rate) |
| --- | --- |
| C#CCS(=O)(=O)c1c(S(C)(=O)=O)ccc(C(=O)Nc2nnc(C)o2)c1Cl [Compound 3-151] | A (Fresh weight inhibition rate≥80% to 100%) |
| Cc1nnc(NC(=O)c2ccc(S(C)(=O)=O)c(S(=O)(=O)CCCl)c2Cl)o1 [Compound 3-216] | A (Fresh weight inhibition rate≥80% to 100%) |
| CC(C)c1nnc(NC(=O)c2ccc(S(C)(=O)=O)c(S(=O)(=O)CC3CC3)c2Cl)o1 [Compound 3-534] | A (Fresh weight inhibition rate≥80% to 100%) |
| CC(C)c1nnc(NC(=O)c2ccc(S(C)(=O)=O)c(S(=O)(=O)C3CC3)c2Cl)o1 [Compound 3-539] | A (Fresh weight inhibition rate≥80% to 100%) |

test system: Oryza sativa subsp. indica; test: as above; assay type: in vivo; conditions: Rate 150 g/ha
Description: as §1, §2, §3, §4, §5

| Compound | Oryza sativa subsp. indica, grading of fresh weight inhibition rate (crop safety) |
| --- | --- |
| C#CCS(=O)(=O)c1c(S(C)(=O)=O)ccc(C(=O)Nc2nnc(C)o2)c1Cl [Compound 3-151] | E (Fresh weight inhibition rate<20%) |
| Cc1nnc(NC(=O)c2ccc(S(C)(=O)=O)c(S(=O)(=O)CCCl)c2Cl)o1 [Compound 3-216] | E (Fresh weight inhibition rate<20%) |
| CC(C)c1nnc(NC(=O)c2ccc(S(C)(=O)=O)c(S(=O)(=O)CC3CC3)c2Cl)o1 [Compound 3-534] | E (Fresh weight inhibition rate<20%) |
| CC(C)c1nnc(NC(=O)c2ccc(S(C)(=O)=O)c(S(=O)(=O)C3CC3)c2Cl)o1 [Compound 3-539] | E (Fresh weight inhibition rate<20%) |

test system: Oryza sativa subsp. japonica; test: as above; assay type: in vivo; conditions: Rate 150 g/ha
Description: as §1, §2, §3, §4, §5

| Compound | Oryza sativa subsp. japonica, grading of fresh weight inhibition rate (crop safety) |
| --- | --- |
| C#CCS(=O)(=O)c1c(S(C)(=O)=O)ccc(C(=O)Nc2nnc(C)o2)c1Cl [Compound 3-151] | E (Fresh weight inhibition rate<20%) |
| Cc1nnc(NC(=O)c2ccc(S(C)(=O)=O)c(S(=O)(=O)CCCl)c2Cl)o1 [Compound 3-216] | E (Fresh weight inhibition rate<20%) |
| CC(C)c1nnc(NC(=O)c2ccc(S(C)(=O)=O)c(S(=O)(=O)CC3CC3)c2Cl)o1 [Compound 3-534] | E (Fresh weight inhibition rate<20%) |
| CC(C)c1nnc(NC(=O)c2ccc(S(C)(=O)=O)c(S(=O)(=O)C3CC3)c2Cl)o1 [Compound 3-539] | E (Fresh weight inhibition rate<20%) |

test system: Leptochloa chinensis; test: Greenhouse herbicidal activity assay, post-emergence; assay type: in vivo; conditions: Post-emergence test, rate 150 g a.i./hm^2; grade by fresh weight inhibition rate
Procedure, shortened: (§6)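 Weeds were sown in nutrient soil in 7 cm pots and grown in a growth chamber to the 3-6 leaf stage, then foliar-sprayed, air-dried and returned to the chamber. Fresh weight inhibition was scored 14-21 days later in bands from A (≥80% to 100%) to E (<20%).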

| Compound | Control efficacy grade, Leptochloa chinensis |
| --- | --- |
| C#CCS(=O)(=O)c1c(S(C)(=O)=O)ccc(C(=O)Nc2nnc(C)o2)c1Cl [Compound 3-151] | A (Fresh weight inhibition rate≥80% to 100%) |
| Cc1nnc(NC(=O)c2ccc(S(C)(=O)=O)c(S(=O)(=O)CCCl)c2Cl)o1 [Compound 3-216] | A (Fresh weight inhibition rate≥80% to 100%) |
| CC(C)c1nnc(NC(=O)c2ccc(S(C)(=O)=O)c(S(=O)(=O)CC3CC3)c2Cl)o1 [Compound 3-534] | B (Fresh weight inhibition rate≥260% to <80%) |
| CC(C)c1nnc(NC(=O)c2ccc(S(C)(=O)=O)c(S(=O)(=O)C3CC3)c2Cl)o1 [Compound 3-539] | A (Fresh weight inhibition rate≥80% to 100%) |

test system: Cyperus iria; test: as above; assay type: in vivo; conditions: Post-emergence test, rate 150 g a.i./hm^2; grade by fresh weight inhibition rate
Procedure, shortened: as §6

| Compound | Control efficacy grade, Cyperus iria |
| --- | --- |
| C#CCS(=O)(=O)c1c(S(C)(=O)=O)ccc(C(=O)Nc2nnc(C)o2)c1Cl [Compound 3-151] | A (Fresh weight inhibition rate≥80% to 100%) |
| CC(C)c1nnc(NC(=O)c2ccc(S(C)(=O)=O)c(S(=O)(=O)CC3CC3)c2Cl)o1 [Compound 3-534] | A (Fresh weight inhibition rate≥80% to 100%) |
| CC(C)c1nnc(NC(=O)c2ccc(S(C)(=O)=O)c(S(=O)(=O)C3CC3)c2Cl)o1 [Compound 3-539] | B (Fresh weight inhibition rate≥260% to <80%) |

test system: Echinochloa crusgalli; test: as above; assay type: in vivo; conditions: Post-emergence test, rate 150 g a.i./hm^2; grade by fresh weight inhibition rate
Procedure, shortened: as §6

| Compound | Control efficacy grade, Echinochloa crusgalli |
| --- | --- |
| C#CCS(=O)(=O)c1c(S(C)(=O)=O)ccc(C(=O)Nc2nnc(C)o2)c1Cl [Compound 3-151] | B (Fresh weight inhibition rate≥260% to <80%) |
| CC(C)c1nnc(NC(=O)c2ccc(S(C)(=O)=O)c(S(=O)(=O)CC3CC3)c2Cl)o1 [Compound 3-534] | B (Fresh weight inhibition rate≥260% to <80%) |
| CC(C)c1nnc(NC(=O)c2ccc(S(C)(=O)=O)c(S(=O)(=O)C3CC3)c2Cl)o1 [Compound 3-539] | B (Fresh weight inhibition rate≥260% to <80%) |

test system: Digitaria sanguinalis; test: as above; assay type: in vivo; conditions: Post-emergence test, rate 150 g a.i./hm^2; grade by fresh weight inhibition rate
Procedure, shortened: as §6

| Compound | Control efficacy grade, Digitaria sanguinalis |
| --- | --- |
| C#CCS(=O)(=O)c1c(S(C)(=O)=O)ccc(C(=O)Nc2nnc(C)o2)c1Cl [Compound 3-151] | B (Fresh weight inhibition rate≥260% to <80%) |
| CC(C)c1nnc(NC(=O)c2ccc(S(C)(=O)=O)c(S(=O)(=O)CC3CC3)c2Cl)o1 [Compound 3-534] | B (Fresh weight inhibition rate≥260% to <80%) |
| CC(C)c1nnc(NC(=O)c2ccc(S(C)(=O)=O)c(S(=O)(=O)C3CC3)c2Cl)o1 [Compound 3-539] | B (Fresh weight inhibition rate≥260% to <80%) |

test system: Eclipta prostrata; test: as above; assay type: in vivo; conditions: Post-emergence test, rate 150 g a.i./hm^2; grade by fresh weight inhibition rate
Procedure, shortened: as §6

| Compound | Control efficacy grade, Eclipta prostrata |
| --- | --- |
| C#CCS(=O)(=O)c1c(S(C)(=O)=O)ccc(C(=O)Nc2nnc(C)o2)c1Cl [Compound 3-151] | A (Fresh weight inhibition rate≥80% to 100%) |
| CC(C)c1nnc(NC(=O)c2ccc(S(C)(=O)=O)c(S(=O)(=O)CC3CC3)c2Cl)o1 [Compound 3-534] | A (Fresh weight inhibition rate≥80% to 100%) |
